Test [1] addresses T1, human chemokine receptor CCR1 (Homo sapiens, UniProt P32246).
T1 construct: expressed in transfected cells; host or cells: HEK293T, transient
T1 sequence (P32246 1-355): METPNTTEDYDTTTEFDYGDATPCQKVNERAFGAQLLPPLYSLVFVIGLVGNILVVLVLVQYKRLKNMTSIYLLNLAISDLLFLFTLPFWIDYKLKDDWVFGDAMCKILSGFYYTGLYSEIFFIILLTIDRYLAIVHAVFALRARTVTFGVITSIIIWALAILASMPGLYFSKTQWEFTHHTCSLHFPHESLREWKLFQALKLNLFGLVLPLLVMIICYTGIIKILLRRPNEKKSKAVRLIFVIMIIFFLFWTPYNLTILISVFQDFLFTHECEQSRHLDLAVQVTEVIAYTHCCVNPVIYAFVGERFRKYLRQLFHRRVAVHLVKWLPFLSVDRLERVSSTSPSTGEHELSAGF
Put plainly: Cellular NanoBiT β-arrestin recruitment assay. Type of test: cell-based. How it is done:
(§1) CCR1 and CCR2 was monitored using a nanoluciferase complementation -based assay (NanoBiT, Promega). 17-19 5 x 10^6 HEK293T cells were plated in 10 cm dishes and cultured for 24 h before transfection with vectors encoding for the human chemokine receptor CCR1 or CCR2 C-terminally fused with SmBiT and β-arrestin 2 N-terminally fused with LgBiT. 24 h after transfection cells were harvested, distributed into white 96-well plates (5 × 10^4 cells per well) and incubated for 1 h at 37 °C with compound 23 at concentrations ranging from 10 nM to 10 µM. The endogenous chemokine ligand CCL5 (3 nM, for CCR1) or CCL2 (10 nM, for CCR2) was then added, and luminescence generated upon nanoluciferase complementation in the presence of coelenterazine H was measured with a Mithras LB940 luminometer (Berthold Technologies) for 20 min. […]
(§2) Finally, the top 5% of the identified hits were subsequently docked to a homology model of CCR1 (vide infra). After visual examination of the obtained binding modes 24 hit compounds were identified for further investigation .
(§3) Molecular docking: For the docking studies in the course of our virtual screening campaign, the CCR1 protein was […]
27, 28 CCR1 structure was optimized using the Quickprep and structure preparation wizard in MOE 24 using CHARMM27 forcefield. The protein was saved in mol2 format and loaded in GOLD.25, 26 The amino acids defining the IABS were listed in a text file to define the docking cavity. 50 GA runs were performed for docking CCR2-RA-[R] (4-[R]) and SN_12 (43), with the generated solutions clustered based on their RMSD with the threshold set to 0.75 Å using the complete linkage method. Docking runs were performed using ChemScore. Flexibility of amino acids Lys63ICL1, Arg1313.50, Leu2406.36 and Arg3078.49 was taken in consideration in the docking runs, with conformational sampling of their side chains being done by the rotamer libraries implemented in GOLD.25, 26 For the docking studies with our ligand-linker conjugates (Figure S1), molecular ligand structures were geometry optimized as neutral molecules by means of Avogadro (Version 1.2.0)29 using the Universal Force Field (UFF) and the Steepest Decent Algorithm until convergence (ΔE = 0).
CCR113 was used for docking. The compounds were docked by means of AutoDock Vina 1.1.2.30, 31 An exhaustiveness value of 8 and a search space of 22 x 22 x 22 Å³ was applied around the unliganded intracellular allosteric binding site of CCR1. Twenty docking poses were generated for each ligand and inspected manually and according to the docking score.
A general note: Activated receptors often draw arrestin, which recruitment assays turn into a signal.

The target in test [2] is T2, human chemokine receptor CCR2 (Homo sapiens, UniProt P41597).
T2 construct: expressed in transfected cells; host or cells: HEK293T, transient
T2 sequence (P41597 whole entry): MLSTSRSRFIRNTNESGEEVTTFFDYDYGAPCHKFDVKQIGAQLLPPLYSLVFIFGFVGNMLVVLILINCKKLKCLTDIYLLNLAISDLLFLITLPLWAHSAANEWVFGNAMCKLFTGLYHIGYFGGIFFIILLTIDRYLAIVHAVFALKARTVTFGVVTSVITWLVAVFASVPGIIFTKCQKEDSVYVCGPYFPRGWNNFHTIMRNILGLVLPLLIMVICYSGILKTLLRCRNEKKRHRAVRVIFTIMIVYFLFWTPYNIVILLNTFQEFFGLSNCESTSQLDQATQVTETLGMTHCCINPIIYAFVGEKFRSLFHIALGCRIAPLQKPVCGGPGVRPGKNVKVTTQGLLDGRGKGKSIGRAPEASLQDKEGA
The experiment in a line: Cellular NanoBiT β-arrestin recruitment assay. The class given is cell-based. To be noted: in the presence of CCL2 (10 nM), HEK293T cells. How it is done:
(PerkinElmer, Groningen, NL).
as §1, with “Cellular NanoBiT β-arrestin recruitment assays: Chemokine-induced β-arrestin-2 recruitment to chemokine receptors CCR1 and” for “CCR1 and”
as §2, §3
27, 28 CCR1 structure was optimized using the Quickprep and structure preparation wizard in MOE 24 using CHARMM27 forcefield. The protein was saved in mol2 format and loaded in GOLD.25, 26 The amino acids defining the IABS were listed in a text file to define the docking cavity. 50 GA runs were performed for docking CCR2-RA-[R] (4-[R]) and SN_12 (43), with the generated solutions clustered based on their RMSD with the threshold set to 0.75 Å using the complete linkage method. Docking runs were performed using ChemScore. […]

Test [3] has as its target vasopressin-2 receptor (V2R). The arrangement: method as in PMID 17435162. To be noted: cited from earlier work.

Where two headings read alike, the source gives them in different places.

Usually Ki stands for the equilibrium dissociation constant of an inhibitor or competing ligand from its target. With `O=C(C1=C(O)C(=O)N(CCc2ccc(O)cc2)C1c1ccc(F)cc1)c1ccccc1` (racemic) [compound 23], the IC50 in test [1] (absence of agonist, read-out: IC50 (CCR1), basal β-arrestin recruitment) was 6 µM; in test [1] (absence of agonist, read-out: pIC50(CCR1), basal β-arrestin recruitment (converted)), 6.17 µM; in test [1] (in the presence of CCL5 (3 nM), HEK293T cells, read-out: IC50 (CCR1), β-arrestin recruitment), 14.2 µM; in test [2] (read-out: IC50 (CCR2), β-arrestin recruitment) it was 186 µM; in test [2] (read-out: pIC50(CCR2), β-arrestin recruitment (converted)), 195 µM. Moreover, in test [1] (cellular NanoBiT assays), the “CCR1 over CCR2 selectivity, β-arrestin recruitment” value is given as greater than 10 fold. Further, the inhibition constant (Ki) in test [3] was roughly 0.07 µM.

(Values after PMC11249626, “Fluorophore-Labeled Pyrrolones Targeting the Intracellular Allosteric Binding Site of the Chemokine Receptor CCR1” (ACS Pharmacology & Translational Science, 2024).)
